Measurements reported in US5690906A (The Trustees of the University of Pennsylvania, priority 1995, dated 1997).
Read-outs that look alike come from different tables or passages of the source.

What was measured:
[1] = target: D3 receptors (expressed in Sf9 cells) (Rattus norvegicus, UniProt P19020); conditions: for Hill Co.: Table 3, [^125 I]trans-7-OH-PIPAT competition; for Hill Co. / Ki: 37° C., 120 mM NaCl; for Ki: ± SE, [^125 I]trans-7-OH-PIPAT 0.1-0.2 nM; for affinity for the D3 receptor: competition with [^125 I]trans-7-OH-PIPAT
D3 receptors (expressed in Sf9 cells), sequence (P19020 whole entry): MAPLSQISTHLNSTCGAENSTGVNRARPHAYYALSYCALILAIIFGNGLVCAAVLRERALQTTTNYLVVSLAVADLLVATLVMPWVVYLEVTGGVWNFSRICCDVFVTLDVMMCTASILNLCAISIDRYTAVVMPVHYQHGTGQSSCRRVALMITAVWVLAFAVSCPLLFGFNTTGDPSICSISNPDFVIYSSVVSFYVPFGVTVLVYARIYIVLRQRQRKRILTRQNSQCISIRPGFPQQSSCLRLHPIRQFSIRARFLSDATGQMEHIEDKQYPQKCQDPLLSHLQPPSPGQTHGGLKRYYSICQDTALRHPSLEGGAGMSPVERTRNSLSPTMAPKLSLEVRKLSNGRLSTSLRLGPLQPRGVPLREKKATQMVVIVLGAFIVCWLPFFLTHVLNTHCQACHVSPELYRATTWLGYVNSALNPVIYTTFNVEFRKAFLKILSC
Experimental: Plasmid DNA was isolated by alkaline dialysis and purified by CsCl density gradient centrifugation and overnight dialysis for transfection of Sf9 cells. […] A monolayer of Sf9 cells (approximately 2×10^6 cells/T25 plate) was cotransfected by calcium phosphate precipitation, with 1 mg of AcMNPV DNA (provided by Dr. Max Summers, Texas A&M University, College Station, Tex.) and 2 mg of recombinant transfer vector DNA. […] Putative recombinant viral plaques were chosen by visual screening for occlusion-negative plaques and used to infect 1×10^6 Sf9 cells in a 6-well plate (CoStar, Cambridge, Mass.). Four days after infection, cells were harvested and membranes were prepared. An aliquot of membranes was used for radioligand binding. […] The membrane homogenates of AcMNPVrD3 infected Sf9 cells were prepared as described. Briefly, the harvested cells were centrifuged, resuspended and homogenized in buffer containing 50 mM Tris, pH7.4, 150mM NaCl, 10 mM EDTA and a mixture of protease inhibitors (1 mg/ml aprotinin, 1 mg/ml leupeptin, 1 mg/ml soybean trypsin inhibitor, 10 mg/ml PMSF). The final pellets obtained were resuspended in the same buffer and kept at -20° C. for radioligand binding assays.
Binding assays were performed in glass tubes (12×75 mm) in a final volume of 0.2 ml. The buffer used for the dilution contained 50 mM Tris, pH 7.4, and the protease inhibitors mixture. […] The competition experiments were performed in the presence of 120 mM NaCl. […] After incubation for 30 min at 37° C. or 90 min at 25° C., the bound ligand was separated from the free ligand by filtration through glass fiber filters No. 25 (Schleicher & Schuell, Keene, N.H.) soaked with 0.2% protamine free base. The filters were then washed twice with 4 ml of ice-cold buffer (containing 50 mM Tris-HCl, pH 7.4) and the radioactivity on the filters was counted in a gamma counter (Packard 5000) with 70% efficiency.

D2 dopamine receptor = target: T1, D2 dopamine receptor (Rattus norvegicus, UniProt P61169); test: Inhibition of [^125 I]NCQ298 binding to D2 dopamine receptors expressed in Sf9 cells; conditions: for HC D2: Table 4, Hill coefficient
T1 construct: made in house; host or cells: Sf9 insect cells infected with recombinant baculovirus (AcMNPVrD2L or AcMNPVrD2S), membrane homogenates
T1 sequence (P61169 whole entry): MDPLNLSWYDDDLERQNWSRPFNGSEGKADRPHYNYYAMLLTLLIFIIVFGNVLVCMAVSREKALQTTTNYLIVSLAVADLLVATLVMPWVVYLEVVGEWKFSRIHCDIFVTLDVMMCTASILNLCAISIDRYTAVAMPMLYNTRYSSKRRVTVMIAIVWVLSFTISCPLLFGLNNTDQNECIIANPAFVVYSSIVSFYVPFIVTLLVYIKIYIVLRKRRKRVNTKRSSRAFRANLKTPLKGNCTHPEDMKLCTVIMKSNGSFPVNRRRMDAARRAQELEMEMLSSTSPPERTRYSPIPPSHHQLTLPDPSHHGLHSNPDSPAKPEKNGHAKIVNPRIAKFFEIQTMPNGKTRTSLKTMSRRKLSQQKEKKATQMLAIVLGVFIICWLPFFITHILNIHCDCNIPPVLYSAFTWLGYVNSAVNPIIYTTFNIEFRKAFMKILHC

D3 dopamine receptor = target: T2, D3 dopamine receptor (Rattus norvegicus, UniProt P19020); test: Inhibition of [^125 I]NCQ298 binding to D3 dopamine receptors expressed in Sf9 cells; conditions: for HC D3: Table 4, Hill coefficient; for Ratio D2/D3: Ki(D2)/Ki(D3)
T2 construct: made in house; host or cells: Sf9 insect cells infected with recombinant baculovirus AcMNPVrD3, membrane homogenates
T2 sequence (P19020 whole entry): as the sequence (P19020 whole entry) above
Experimental: The construction of pVL1393-rD3 was previously described. […] An aliquot of membranes was used for radioligand binding.
Membranes from AcMNPV-rD3 infected Sf9 cells were prepared. […] Assays were incubated at 37° C. for 20 min. then filtered and washed as described above.

[2] = In-vivo biodistribution in rats; parameters: species or system rat; Brain uptake: unit not given here; conditions: for Brain uptake: table; for tissue uptake at 2 min / tissue uptake at 0.5 h / tissue uptake at 1 h: rat
Experimental: In-vivo biodistribution studies were performed in rats^27 with the two hydroxylated radioligands: [^123 I]-7-OH-DPAT and [^123 I]-7-OH-PIPAT in rats. Concerning [^123 I]-7-OH-DPAT rats were killed either two minutes or thirty minutes post injection and the data are reported in Table 5. […] On the contrary, [^123 I]-7-OH-PIPAT presented a very high brain uptake: 11.812, 9,458 and 5.433% dose/gram of tissue at 2, 30 and 60 min. respectively (See Table 6). […] However, the brain regions, rich in D3 receptors such as Calleja island and olfactory tubercle need to be more deeply investigated.

[3] = Table 4 and its discussion, [^125 I]-NCQ298 0.05 nM, 37° C., 20 min, read-out: Ki D2
[4] = Table 4 and its discussion, [^125 I]-NCQ298 0.1 nM, 37° C., 20 min, read-out: Ki D3

CCCN(CCC)C1CCc2cccc(O)c2C1 (racemic) [8-OH-DPAT, 8-hydroxy-2-(di-n-propylamino)tetralin]
Hill Co. [1]: 0.78

NCCc1c[nH]c2ccc(O)cc12 [5-HT]
Hill Co. [1]: 0.90 | Ki [1]: 2340 ± 420 nM

COc1ccc2c(c1)CC(NCc1ccccc1)CC2 (stereo not drawn) [7-MeO-BAT, 7Methoxy-2-N-Benzylaminotetralin]
HC D2 (D2 dopamine receptor): 0.78 | Ki (D2 dopamine receptor; [3]): 5880 ± 471 nM | HC D3 (D3 dopamine receptor): 0.80 | Ratio D2/D3 (D3 dopamine receptor; Table 4 and its discussion): 3.1 | Ki (D3 dopamine receptor; [4]): 1870 ± 224 nM

CCCN(CCC)C1CCc2ccc(OC)cc2C1 (stereo not drawn) [7-MeO-DPAT, 7Methoxy-2-N,N-n-Dipropylaminotetralin]
Ki (D2 dopamine receptor): 2170 ± 216 nM | HC D2 (D2 dopamine receptor): 0.95 | Ki (D3 dopamine receptor): 280 ± 36 nM | HC D3 (D3 dopamine receptor): 0.98 | Ratio D2/D3 (D3 dopamine receptor; Table 4 and its discussion): 7.7

CCCNC1CCc2ccc(OC)cc2C1 (stereo not drawn) [7-MeO-MPAT, 7Methoxy-2-N-n-Propylaminotetralin]
Ki (D2 dopamine receptor): 5176 ± 0.96 nM | HC D2 (D2 dopamine receptor): 0.96 | Ki (D3 dopamine receptor): 1310 ± 249 nM | HC D3 (D3 dopamine receptor): 0.97 | Ratio D2/D3 (D3 dopamine receptor; Table 4 and its discussion): 4.0

CCCN(C/C=C/I)C1CCc2ccc(OC)cc2C1 (stereo not drawn) [7-MeO-PIPAT, 7Methoxy-2-[N-3'-(1'-Iodo-1'E-Propenyl)-N-n-Propylamino]tetralin]
HC D2 (D2 dopamine receptor): 1.22 | Ki (D2 dopamine receptor; [3]): 1380 ± 193 nM | HC D3 (D3 dopamine receptor): 0.93 | Ratio D2/D3 (D3 dopamine receptor; Table 4 and its discussion): 5.4 | Ki (D3 dopamine receptor; [4]): 257 ± 31 nM

Oc1ccc2c(c1)CC(NCc1ccccc1)CC2 (stereo not drawn) [7-OH-BAT, 7Hydroxy-2-N-n-Benzylaminotetralin]
HC D2 (D2 dopamine receptor): 0.80 | Ki (D2 dopamine receptor; [3]): 1860 ± 261 nM | affinity / selectivity for the D3 receptor (D3 dopamine receptor): lowest affinity for the D3 receptor | HC D3 (D3 dopamine receptor): 1.00 | Ratio D2/D3 (D3 dopamine receptor; Table 4 and its discussion): 4.8 | Ki (D3 dopamine receptor; [4]): 391 ± 47 nM

CCCNC1CCc2ccc(O)cc2C1 (stereo not drawn) [7-OH-MPAT, 7Hydroxy-2-N-n-Propylaminotetralin]
HC D2 (D2 dopamine receptor): 0.80 | Ki (D2 dopamine receptor; [3]): 620 ± 124 nM | Ki (D3 dopamine receptor): 3.25 ± 0.45 nM | affinity / selectivity for the D3 receptor (D3 dopamine receptor): comparative affinity as 7-OH-DPAT for D3 receptors | HC D3 (D3 dopamine receptor): 0.80 | Ratio D2/D3 (D3 dopamine receptor; Table 4 and its discussion): 191

C#CCN(CCC)C1CCc2ccc(O)cc2C1 (stereo not drawn) [7-OH-PPAT, 7Hydroxy-2-(-Propargyl-N-n-Propyl)-Aminotetralin]
affinity for the D2 receptor (D2 dopamine receptor): three-fold less active than 7-OH-DPAT | HC D2 (D2 dopamine receptor): 0.99 | Ki (D2 dopamine receptor; [3]): 378 ± 45 nM | Ki (D3 dopamine receptor): 9.2 ± 0.6 nM | affinity / selectivity for the D3 receptor (D3 dopamine receptor): three-fold less active than 7-OH-DPAT | HC D3 (D3 dopamine receptor): 0.80 | Ratio D2/D3 (D3 dopamine receptor; Table 4 and its discussion): 41.1

CCCN(CCC)C1CCc2ccc(O)c(I)c2C1 (stereo not drawn) [8-I-7-OH-DPAT, 7Hydroxy-8-Iodo-2-N,N-n-Dipropylaminotetralin]
HC D2 (D2 dopamine receptor): 0.92 | Ki (D2 dopamine receptor; [3]): 353 ± 31 nM | Ki (D3 dopamine receptor): 21.3 ± 2.9 nM | HC D3 (D3 dopamine receptor): 0.85 | Ratio D2/D3 (D3 dopamine receptor; Table 4 and its discussion): 16.6

CCN1CCC[C@H]1CNC(=O)c1c(O)c(Cl)cc(Cl)c1OC [Raclopride]
Hill Co. [1]: 0.78 | Ki [1]: 9.25 ± 2.3 nM

CN1CCc2cc(Cl)c(O)cc2[C@@H](c2ccccc2)C1 [SCH23390]
Hill Co. [1]: 0.80 | affinity for the D3 receptor [1]: moderate to low affinity

COC(=O)[C@@H]1[C@H]2C[C@H]3c4[nH]c5ccccc5c4CCN3C[C@@H]2CC[C@@H]1O [Yohimbine]
Hill Co. [1]: 0.97 | affinity for the D3 receptor [1]: moderate to low affinity | Ki [1]: 2430 ± 146 nM

CCCN(CCC)C1CCc2ccc(O)c([123I])c2C1 (stereo not drawn) [[^123 I]-7-OH-DPAT, reference compound]
Brain uptake ([2]; 2 min): 1.55 ± 0.21 | Brain uptake ([2]; 30 min): 0.54 ± 0.13 | tissue uptake at 2 min ([2]; in vivo, 2 min, read-out: Regional uptake, Cerebellum): 0.81 ± 0.14 %ID/g | tissue uptake at 2 min ([2]; in vivo, 2 min, read-out: Regional uptake, Cortex): 1.1 ± 0.12 %ID/g | tissue uptake at 2 min ([2]; in vivo, 2 min, read-out: Regional uptake, Hippocampus): 0.78 ± 0.09 %ID/g | tissue uptake at 2 min ([2]; in vivo, 2 min, read-out: Regional uptake, Striatum): 0.85 ± 0.07 %ID/g | tissue uptake at 0.5 h ([2]; in vivo, 30 min, read-out: Regional uptake, Cerebellum): 0.25 ± 0.09 %ID/g | tissue uptake at 0.5 h ([2]; in vivo, 30 min, read-out: Regional uptake, Cortex): 0.29 ± 0.12 %ID/g | tissue uptake at 0.5 h ([2]; in vivo, 30 min, read-out: Regional uptake, Hippocampus): 0.31 ± 0.07 %ID/g | tissue uptake at 0.5 h ([2]; in vivo, 30 min, read-out: Regional uptake, Striatum): 0.31 ± 0.08 %ID/g | brain washout ([2]; rats, brain): rapidly washed out of the brain | regional uptake in the different area of the brain ([2]; rats, brain): no regional uptake was observed

CCCN(C/C=C/[123I])C1CCc2ccc(O)cc2C1 (stereo not drawn) [[^123 I]-7-OH-PIPAT]
Blood uptake ([2]; 2 min): 2.621 ± 0.298 | Heart uptake ([2]; 2 min): 1.780 ± 0.231 | Kidney uptake ([2]; 2 min): 5.887 ± 1.088 | Liver uptake ([2]; 2 min): 9.687 ± 3.302 | Lung uptake ([2]; 2 min): 5.394 ± 0.589 | Muscle uptake ([2]; 2 min): 33.199 ± 11.64 | Skin uptake ([2]; 2 min): 8.816 ± 1.656 | Spleen uptake ([2]; 2 min): 0.449 ± 0.161 | Thyroid uptake ([2]; 2 min): 0.174 ± 0.012 | Brain uptake ([2]; 2 min): 2.612 ± 0.498 | Blood uptake ([2]; 30 min): 0.785 ± 0.089 | Heart uptake ([2]; 30 min): 0.203 ± 0.054 | Kidney uptake ([2]; 30 min): 0.978 ± 0.276 | Liver uptake ([2]; 30 min): 3.573 ± 0.569 | Lung uptake ([2]; 30 min): 0.768 ± 0.146 | Muscle uptake ([2]; 30 min): 23.546 ± 8.469 | Skin uptake ([2]; 30 min): 6.962 ± 0.362 | Spleen uptake ([2]; 30 min): 0.284 ± 0.011 | Thyroid uptake ([2]; 30 min): 0.045 ± 0.007 | Brain uptake ([2]; 30 min): 0.660 ± 0.096 | Blood uptake ([2]; 60 min): 0.742 ± 0.075 | Heart uptake ([2]; 60 min): 0.100 ± 0.010 | Kidney uptake ([2]; 60 min): 1.042 ± 0.114 | Liver uptake ([2]; 60 min): 2.335 ± 1.391 | Lung uptake ([2]; 60 min): 0.437 ± 0.038 | Muscle uptake ([2]; 60 min): 12.882 ± 3.927 | Skin uptake ([2]; 60 min): 6.148 ± 0.922 | Spleen uptake ([2]; 60 min): 0.180 ± 0.023 | Thyroid uptake ([2]; 60 min): 0.096 ± 0.067 | Brain uptake ([2]; 60 min): 0.321 ± 0.037 | tissue uptake at 2 min ([2]; brain, 2 min, read-out: brain uptake): 11.8 %ID/g | tissue uptake at 1 h ([2]; brain, 60 min, read-out: brain uptake): 5.43 %ID/g | tissue uptake at 2 min ([2]; cerebellum, 2 min, read-out: Regional uptake, Cerebellum): 1.61 ± 0.403 %ID/g | tissue uptake at 0.5 h ([2]; cerebellum, 30 min, read-out: Regional uptake, Cerebellum): 0.379 ± 0.009 %ID/g | tissue uptake at 1 h ([2]; cerebellum, 60 min, read-out: Regional uptake, Cerebellum): 0.215 ± 0.025 %ID/g | tissue uptake at 2 min ([2]; cortex, 2 min, read-out: Regional uptake, Cortex): 2 ± 0.038 %ID/g | tissue uptake at 0.5 h ([2]; cortex, 30 min, read-out: Regional uptake, Cortex): 0.265 ± 0.086 %ID/g | tissue uptake at 1 h ([2]; cortex, 60 min, read-out: Regional uptake, Cortex): 0.206 ± 0.022 %ID/g | tissue uptake at 2 min ([2]; hippocampus, 2 min, read-out: Regional uptake, Hippocampus): 1.63 ± 0.222 %ID/g | tissue uptake at 0.5 h ([2]; hippocampus, 30 min, read-out: Regional uptake, Hippocampus): 0.261 ± 0.064 %ID/g | tissue uptake at 1 h ([2]; hippocampus, 60 min, read-out: Regional uptake, Hippocampus): 0.216 ± 0.02 %ID/g | tissue uptake at 2 min ([2]; hypothalamus, 2 min, read-out: Regional uptake, Hypothalamus): 1.83 ± 0.233 %ID/g | tissue uptake at 0.5 h ([2]; hypothalamus, 30 min, read-out: Regional uptake, Hypothalamus): 0.251 ± 0.009 %ID/g | tissue uptake at 1 h ([2]; hypothalamus, 60 min, read-out: Regional uptake, Hypothalamus): 0.254 ± 0.033 %ID/g | tissue uptake at 2 min ([2]; rem, 2 min, read-out: Regional uptake, REM): 1.67 ± 0.224 %ID/g | tissue uptake at 0.5 h ([2]; rem, 30 min, read-out: Regional uptake, REM): 0.281 ± 0.076 %ID/g | tissue uptake at 1 h ([2]; rem, 60 min, read-out: Regional uptake, REM): 0.218 ± 0.025 %ID/g | tissue uptake at 2 min ([2]; striatum, 2 min, read-out: Regional uptake, Striatum): 1.62 ± 0.236 %ID/g | tissue uptake at 0.5 h ([2]; striatum, 30 min, read-out: Regional uptake, Striatum): 0.263 ± 0.08 %ID/g | tissue uptake at 1 h ([2]; striatum, 60 min, read-out: Regional uptake, Striatum): 0.212 ± 0.029 %ID/g | regional uptake in the different area of the brain ([2]; rats, brain): no regional uptake was observed

CCCN(C/C=C/I)C1CCc2ccc(O)cc2C1 (stereo not drawn) [trans-7-OH-PIPAT]
Ki (D2 dopamine receptor; Table 2, ± SE, [^125 I]NCQ298, Sf9 cells, read-out: Ki D2): 265 ± 36 nM | HC D2 (D2 dopamine receptor): 0.96 | Ki (D2 dopamine receptor; [3]): 265 ± 48 nM
